Experimental data taken from ChEMBL document CHEMBL3885881, “DrugMatrix”.

Organism: Rattus norvegicus
Assay: DrugMatrix - Regimen: Daily Repeat
Type: toxicity, organism-based, Sprague-Dawley
Parameters: regimen Daily Repeat, gender Male, age 6-8 weeks
Conditions: in vivo, po, 8 mg/kg, route oral GAVAGE, dose level Low, vehicle 100 % WATER; for ABSOLUTE BASOPHIL / ABSOLUTE EOSINOPHIL / ABSOLUTE LYMPHOCYTE / ABSOLUTE MONOCYTE / ABSOLUTE SEGMENTED NEUTROPHIL / BASOPHIL / EOSINOPHIL / ERYTHROCYTE COUNT / HEMATOCRIT / HEMOGLOBIN / LEUKOCYTE COUNT / LYMPHOCYTE / MEAN CORPUSCULAR HEMOGLOBIN / MEAN CORPUSCULAR HEMOGLOBIN CONCENTRATION / MEAN CORPUSCULAR VOLUME / MONOCYTE / NEUTROPHIL / NUCLEATED RED BLOOD CELLS / PLATELET COUNT: tissue Blood
[1] = 72 h, tissue Plasma, time 3 day
[2] = 120 h, tissue Plasma, time 5 day

`NNc1ccccc1` [PHENYLHYDRAZINE] was tested, and the “ABSOLUTE BASOPHIL” value (72 h, time 3 day) was 0 CELLS/uL, the “ABSOLUTE EOSINOPHIL” value (72 h, time 3 day) was 0 CELLS/uL and the “ABSOLUTE LYMPHOCYTE” value (72 h, time 3 day) was 13454.67 CELLS/uL. The “ABSOLUTE MONOCYTE” value (72 h, time 3 day) was 235.67 CELLS/uL, the “ABSOLUTE SEGMENTED NEUTROPHIL” value (72 h, time 3 day) was 1043 CELLS/uL and the BASOPHIL (72 h, time 3 day) was 0%. For the same molecule, the EOSINOPHIL (72 h, time 3 day) was 0%, the “ERYTHROCYTE COUNT” value (72 h, time 3 day) was 5.23 x10E6/uL and the HEMATOCRIT (72 h, time 3 day) was 34.17%. The HEMOGLOBIN (72 h, time 3 day) was 13.63 G/DL, the “LEUKOCYTE COUNT” value (72 h, time 3 day) was 14.73 x10E3/uL and the LYMPHOCYTE (72 h, time 3 day) was 91.33%. The “MEAN CORPUSCULAR HEMOGLOBIN” value (72 h, time 3 day) was 26.1 pg, the “MEAN CORPUSCULAR HEMOGLOBIN CONCENTRATION” value (72 h, time 3 day) was 39.93 G/DL and the “MEAN CORPUSCULAR VOLUME” value (72 h, time 3 day) was 65.33 fL. The MONOCYTE (72 h, time 3 day) was 1.33%, the NEUTROPHIL (72 h, time 3 day) was 7.33% and the “NUCLEATED RED BLOOD CELLS” value (72 h, time 3 day) was 0 /100WBC. For the same molecule, the “PLATELET COUNT” value (72 h, time 3 day) was 994.33 x10E3/uL, the “ALANINE AMINOTRANSFERASE” value [1] was 53 u/L and the ALBUMIN [1] was 4.17 G/DL. The “ALKALINE PHOSPHATASE” value [1] was 388 u/L, the “ASPARTATE AMINOTRANSFERASE” value [1] was 115 u/L and the “BLOOD UREA NITROGEN” value [1] was 15.33 mg/dL. The “CARBON DIOXIDE” value [1] was 21.33 mmol/L, the CHLORIDE [1] was 102.67 MEQ/L and the CHOLESTEROL [1] was 102.33 mg/dL. For the same molecule, the “CREATINE PHOSPHOKINASE” value [1] was 1080.67 u/L, the CREATININE [1] was 0.13 mg/dL and the GLUCOSE [1] was 177 mg/dL. For the same molecule, the “LACTATE DEHYDROGENASE” value [1] was 308.67 u/L, the LIPASE [1] was 9.33 u/L and the PHOSPHORUS [1] was 14.53 mg/dL. For the same molecule, the POTASSIUM [1] was 6.82 MEQ/L, the SODIUM [1] was 146.1 MEQ/L and the “TOTAL BILIRUBIN” value [1] was 0.17 mg/dL. For the same molecule, the “TOTAL PROTEIN” value [1] was 5.87 G/DL, the “URIC ACID” value [1] was 2.1 mg/dL and the “ABSOLUTE BASOPHIL” value (120 h, time 5 day) was 0 CELLS/uL. For the same molecule, the “ABSOLUTE EOSINOPHIL” value (120 h, time 5 day) was 0 CELLS/uL, the “ABSOLUTE LYMPHOCYTE” value (120 h, time 5 day) was 16277.67 CELLS/uL and the “ABSOLUTE MONOCYTE” value (120 h, time 5 day) was 115 CELLS/uL. The “ABSOLUTE SEGMENTED NEUTROPHIL” value (120 h, time 5 day) was 974 CELLS/uL, the BASOPHIL (120 h, time 5 day) was 0% and the EOSINOPHIL (120 h, time 5 day) was 0%. The “ERYTHROCYTE COUNT” value (120 h, time 5 day) was 5.53 x10E6/uL, the HEMATOCRIT (120 h, time 5 day) was 35.4% and the HEMOGLOBIN (120 h, time 5 day) was 14.27 G/DL. The “LEUKOCYTE COUNT” value (120 h, time 5 day) was 17.37 x10E3/uL, the LYMPHOCYTE (120 h, time 5 day) was 93.67% and the “MEAN CORPUSCULAR HEMOGLOBIN” value (120 h, time 5 day) was 25.8 pg. The “MEAN CORPUSCULAR HEMOGLOBIN CONCENTRATION” value (120 h, time 5 day) was 40.3 G/DL, the “MEAN CORPUSCULAR VOLUME” value (120 h, time 5 day) was 64.07 fL and the MONOCYTE (120 h, time 5 day) was 0.67%. The NEUTROPHIL (120 h, time 5 day) was 5.67%, the “NUCLEATED RED BLOOD CELLS” value (120 h, time 5 day) was 0 /100WBC and the “PLATELET COUNT” value (120 h, time 5 day) was 1250.67 x10E3/uL. The “ALANINE AMINOTRANSFERASE” value [2] was 46.67 u/L, the ALBUMIN [2] was 4.1 G/DL and the “ALKALINE PHOSPHATASE” value [2] was 440.67 u/L. For the same molecule, the “ASPARTATE AMINOTRANSFERASE” value [2] was 81.67 u/L, the “BLOOD UREA NITROGEN” value [2] was 15.33 mg/dL and the “CARBON DIOXIDE” value [2] was 26.33 mmol/L. The CHLORIDE [2] was 102 MEQ/L, the CHOLESTEROL [2] was 63 mg/dL and the “CREATINE PHOSPHOKINASE” value [2] was 289 u/L. For the same molecule, the CREATININE [2] was 0.12 mg/dL, the GLUCOSE [2] was 147.67 mg/dL and the “LACTATE DEHYDROGENASE” value [2] was 310.67 u/L. It also gave an LIPASE [2] of 9 u/L, a PHOSPHORUS [2] of 13.93 mg/dL and a POTASSIUM [2] of 6.84 MEQ/L. For the same molecule, the SODIUM [2] was 144.13 MEQ/L.
